The target in experiment [1] is T1, Recombinant human prolyl oligopeptidase (Homo sapiens, UniProt P48147).
T1 construct: made in house; host or cells: E. coli
T1 sequence (P48147 1-710): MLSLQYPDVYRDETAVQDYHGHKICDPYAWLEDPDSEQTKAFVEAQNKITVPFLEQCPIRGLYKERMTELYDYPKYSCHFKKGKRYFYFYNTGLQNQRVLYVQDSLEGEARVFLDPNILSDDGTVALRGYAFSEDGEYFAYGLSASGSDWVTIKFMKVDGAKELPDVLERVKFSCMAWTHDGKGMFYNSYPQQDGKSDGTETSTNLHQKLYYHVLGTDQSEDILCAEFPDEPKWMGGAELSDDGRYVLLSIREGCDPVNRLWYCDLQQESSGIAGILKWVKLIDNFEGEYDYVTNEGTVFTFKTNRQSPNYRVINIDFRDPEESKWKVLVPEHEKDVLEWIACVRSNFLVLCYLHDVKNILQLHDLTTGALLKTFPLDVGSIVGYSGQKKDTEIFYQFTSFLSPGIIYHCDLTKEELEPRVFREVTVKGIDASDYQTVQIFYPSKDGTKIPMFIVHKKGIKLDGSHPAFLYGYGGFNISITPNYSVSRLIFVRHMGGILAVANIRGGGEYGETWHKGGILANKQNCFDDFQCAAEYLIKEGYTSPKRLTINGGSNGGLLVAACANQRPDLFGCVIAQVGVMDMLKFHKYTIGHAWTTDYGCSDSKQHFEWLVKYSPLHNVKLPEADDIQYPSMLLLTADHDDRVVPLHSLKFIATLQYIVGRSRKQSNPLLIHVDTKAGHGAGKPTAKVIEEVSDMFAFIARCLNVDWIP
The experiment is described as follows: Determination of IC50- and Ki-values of PEP-inhibitors (chromogenic substrate Z-Gly-Pro-pNA). The format is biochemical. The settings on record: substrate Z-Gly-Pro-pNA 0.15 mM, HEPES buffer pH 7.6, 30° C.; n.i. = no inhibition. As for the experimental part: Biological Evaluation, Determination of IC50- and Ki-Values of PEP-Inhibitors
Recombinant human prolyl oligopeptidase was used for measurement. Recombinant expression was performed in E. coli under standard conditions as described elsewhere in the state of the art.
For activity measurements the chromogenic substrate Z-Gly-Pro-pNA was used in HEPES buffer pH 7.6 containing 50 mM HEPES, 200 mM NaCl, 1 mM EDTA, 1 mM DTT, 0.006% Brij35. Measurements were carried out at 30° C. Release of pNA were monitored continuously at 405 nm.
IC50 values were calculated using non-linear regression to a 4-parameter equation (Prism 4.0, GraphPad).
For Ki determination 4 substrate (0.15 mM, 0.08 mM 0.04 mM, 0.02 mM) and 7 inhibitor concentrations in an appropriate range were used. Calculations were performed by multiple non-linear regression analysis to the equation for competitive inhibition using GraFit 5.0 Software (Erithacus Software).

The test system of the next experiment is human glial U-343 cells. The experiment is described as follows: IL-6 ELISA, basal secretion of IL-6. The format is cell-based. The settings on record: inhibitor 20 μM, 24 hours, serum-free medium, untreated control = 100%, read-out: Extracellular IL-6 concentration, % of untreated cells. The protocol: To analyze basal secretion of IL-6, human glial U-343 cells were cultured in 6 well plates (1.5×10^6 cells/well, Greiner) and treated with specific PEP inhibitors as indicated (20 μM each) for 24 hours in serum-free D-MEM medium (invitrogen). Aliquots of 40 μl conditioned medium were used to quantify the amount of secreted IL-6 by an human-specific IL-6 ELISA (Biosource) following the manufacturer's instructions. All data were obtained in quadruplicate. For the calculation of the IL-6 concentration in the cell culture medium after PEP-inhibitor treatment, the basal IL-6 concentration of the cell culture medium of untreated cell samples was set to 100%. The results of the measurement of the IL-6 concentration with PEP-inhibitor treated cells are presented as % of the untreated cell samples.

In the next experiment the test system is U-343 and SH-SY5Y cells. The experiment is described as follows: β-Amyloid ELISA, secreted β-amyloid peptides 1-40 and 1-42. The format is cell-based. The settings on record: Homo sapiens, inhibitor 20 μM, 24 hours, conditioned medium, untreated cells = 100%, cell line and peptide (1-40/1-42) not given, read-out: Extracellular Aβ-concentration, % of control. As for the experimental part: The human glioma cell line, U-343 and the human neuroblastoma cell line, SH-SY5Y were maintained in Dulbecco's modified Eagle's medium (DMEM) containing 10% fetal bovine serum (Gibco BRL, Karlsruhe, Germany) and incubated at 37° C. in a 5% CO2 atmosphere. Culture media contained in general 60 μg/ml gentamycin (Gibco BRL, Karlsruhe, Germany).
To quantify intracellular and extracellular concentrations of 0-amyloid peptides, 1-40 and 1-42, U-343 and SH-SY5Y cells were cultured in 6 well plates (1.5×10^6 cells/well) and treated with specific PEP inhibitors (20 μM each) for 24 hours. For quantitation of secreted β-amyloid peptides the conditioned medium was collected and concentrated by lyophylisation. Likewise, after determination of the cell numbers/well (casy cell counter I, Schärfe System, Reutlingen, Germany), cells were lyzed with cell extraction buffer (Biosource, Solingen, Germany) according to the manufacturer's protocol. The protein concentration was determined by the method of Bradford (1976). Aliquots of 100 μl were used to quantify β-amyloid peptides 1-40 and 1-42 in quadruplicate by ELISA (IBL, Hamburg, Germany) following the manufacturer's instructions. All obtained intracellular and extracellular concentrations were normalized to cell numbers and protein concentration, respectively.
For the calculation of the concentration of β-amyloid peptides 1-40 and 1-42 in the cell culture medium after PEP-inhibitor treatment, the basal concentration of β-amyloid peptides 1-40 and 1-42 in the cell culture medium of untreated cell samples was set to 100%. The results of the measurement of the concentration of β-amyloid peptides 1-40 and 1-42 with PEP-inhibitor treated cells are presented as % of the untreated cell samples.

The structures appear in SMILES notation.

As to `O=C(OCN1C(=O)c2ccccc2C1=O)c1ccccc1C(=O)c1cccs1` [Example 9], the IC50 result in experiment [1] is on record as “n.i”. For the same compound, the activity at 20 µM in the experiment with human glial U-343 cells was found to be 124%; in the experiment on U-343 and SH-SY5Y cells, 113%.
The corresponding values for `COc1cccc(COC(=O)c2ccccc2C(=O)c2cccs2)c1` [Example 18] are “n.i”, 63.3% and 106%.
